Source: US9670227B2, “Thienopyrimidine derivatives, a process for their preparation and pharmaceutical compositions containing them” (LES LABORATOIRES SERVIER, priority 2013, dated 2017)
Like-named read-outs stand apart in the source and are kept apart here.

What was measured:
[1] = tested on: H929 multiple myeloma tumour line; assay: In vitro cytotoxicity, Microculture Tetrazolium Assay; format: cell-based; conditions: Homo sapiens, NCI-H929, 48 h, H929 cells, 48 hours exposure, MTT; read-out: IC50 (μM) MTT H929
Description: The cytotoxicity studies were carried out on the H929 multiple myeloma tumour line.
The cells are distributed onto microplates and exposed to the test compounds for 48 hours.

Mcl-1 protein = Mcl-1 protein (UniProtKB primary accession number: Q07820) (Homo sapiens, UniProt Q07820); assay: Inhibition of Mcl-1 by fluorescence polarisation, Method 1; format: binding; conditions: read-out: IC50 (M) Mcl-1 FP
Sequence of Mcl-1 protein (Q07820 whole entry): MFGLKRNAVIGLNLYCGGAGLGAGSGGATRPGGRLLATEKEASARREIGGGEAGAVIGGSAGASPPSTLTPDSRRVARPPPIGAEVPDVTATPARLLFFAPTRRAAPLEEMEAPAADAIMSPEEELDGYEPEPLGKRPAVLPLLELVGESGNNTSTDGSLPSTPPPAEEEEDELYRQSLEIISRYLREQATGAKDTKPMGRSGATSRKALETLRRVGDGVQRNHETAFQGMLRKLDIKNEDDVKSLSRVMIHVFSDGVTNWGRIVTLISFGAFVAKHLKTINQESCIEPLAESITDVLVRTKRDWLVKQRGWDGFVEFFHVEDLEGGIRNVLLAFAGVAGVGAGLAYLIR
Outline: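 Compounds were tested as 11-point serial dilutions at 5% final DMSO against 5 nM Mcl-1 with 1 nM fluorescein-labelled ligand in 10 mM HEPES, 150 mM NaCl, 0.05% Tween 20, pH 7.4. Relative binding potency was read by fluorescence polarisation.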

[2] = fluorescence polarisation, Method 1, or Method 2
[3] = fluorescence polarisation test, Method 2 values are underlined in the patent (underlining not visible here)

| Structure (SMILES) | IC50 [1] | IC50 (Mcl-1 protein; [2]) | IC50 (Mcl-1 protein; [3]) |
| --- | --- | --- | --- |
| COc1ccccc1CC(Oc1ncnc2sc(-c3ccc(C)cc3)c(-c3ccc(OCCN4CCN(C)CC4)c(Cl)c3C)c12)C(=O)O [Example 538, (2R)-2-{[(5Sa)-5-{3-chloro-2-methyl-4-[2-(4-methylpiperazin-1-yl)ethoxy]phenyl}-6-(4-methylphenyl)thieno[2,3-d]pyrimidin-4-yl]oxy}-3-(2-methoxyphenyl)propanoic acid] | 0.672 µM | 4.7e-08 M | – |
| CC#Cc1sc2ncnc(OC(Cc3ccccc3OCc3ccnc(CCOC)n3)C(=O)O)c2c1-c1ccc(OCCN2CCN(C)CC2)c(Cl)c1C [Example 484, (2R)-2-{[(5Sa)-5-{3-chloro-2-methyl-4-[2-(4-methylpiperazin-1-yl)ethoxy]phenyl}-6-(prop-1-yn-1-yl)thieno[2,3-d]pyrimidin-4-yl]oxy}-3-(2-{[2-(2-methoxyethyl)pyrimidin-4-yl]methoxy}phenyl)propanoic acid] | 0.014 µM | 3.4e-09 M | – |
| Cc1c(-c2c(-c3ccc(F)cc3)sc3ncnc(OC(Cc4ccccc4OCc4ccnc(-c5ccnc(Cl)c5)n4)C(=O)O)c23)ccc(OCCN2CCN(C)CC2)c1Cl [Example 119, (2R)-2-{[(5Sa)-5-{3-chloro-2-methyl-4-[2-(4-methylpiperazin-1-yl)ethoxy]phenyl}-6-(4-fluorophenyl)thieno[2,3-d]pyrimidin-4-yl]oxy}-3-(2-{[2-(2-chloropyridin-4-yl)pyrimidin-4-yl]methoxy}phenyl)propanoic acid] | 0.02 µM | – | 4.8e-09 M |
| COc1ccccc1CC(Oc1ncnc2sc(-c3cccc(O)c3)c(-c3ccc(OCCN4CCN(C)CC4)c(Cl)c3C)c12)C(=O)O [Example 553, (2R)-2-{[(5Sa)-5-{3-chloro-2-methyl-4-[2-(4-methylpiperazin-1-yl)ethoxy]phenyl}-6-(3-hydroxyphenyl)thieno[2,3-d]pyrimidin-4-yl]oxy}-3-(2-methoxyphenyl)propanoic acid] | 0.585 µM | 1.1e-08 M | – |
| CCc1sc2ncnc(OC(Cc3ccccc3)C(=O)O)c2c1-c1ccc(OCCN2CCC(O)CC2)c(Cl)c1C [Example 413, (2R)-2-[((5Sa)-5-{3-chloro-4-[2-(4-hydroxypiperidin-1-yl)ethoxy]-2-methylphenyl}-6-ethylthieno[2,3-d]pyrimidin-4-yl)oxy]-3-phenylpropanoic acid] | 15.8 µM | 1.3e-08 M | – |
| CC#Cc1sc2ncnc(OC(Cc3ccccc3OC)C(=O)O)c2c1-c1cc(OC)c(OCCN2CCN(C)CC2)c(Cl)c1C [Example 477, (2R)-2-{[(5Sa)-5-{3-chloro-5-methoxy-2-methyl-4-[2-(4-methylpiperazin-1-yl)ethoxy]phenyl}-6-(prop-1-yn-1-yl)thieno[2,3-d]pyrimidin-4-yl]oxy}-3-(2-methoxyphenyl)propanoic acid] | 2.57 µM | 5.6e-08 M | – |
| COc1ccccc1CC(Oc1ncnc2sc(-c3ccco3)c(-c3ccc(OCCN)c(Cl)c3C)c12)C(=O)O [Example 319, (2R)-2-({(5Sa)-5-[4-(2-aminoethoxy)-3-chloro-2-methylphenyl]-6-(furan-2-yl)thieno[2,3-d]pyrimidin-4-yl}oxy)-3-(2-methoxyphenyl)propanoic acid] | 0.834 µM | – | 1.5e-08 M |
| COc1nccc(COc2ccccc2CC(Oc2ncnc3sc(-c4ccc(F)c(OCCN5CCOCC5)c4)c(-c4ccc(OCCN5CCN(C)CC5)c(Cl)c4C)c23)C(=O)O)n1 [Example 596, (2R)-2-[((5Sa)-5-{3-chloro-2-methyl-4-[2-(4-methylpiperazin-1-yl)ethoxy]phenyl}-6-{4-fluoro-3-[2-(morpholin-4-yl)ethoxy]phenyl}thieno[2,3-d]pyrimidin-4-yl)oxy]-3-{2-[(2-methoxypyrimidin-4-yl)methoxy]phenyl}propanoic acid] | 0.12 µM | 2.7e-09 M | – |
| COc1ccccc1CC(Oc1ncnc2sc(C3CCCO3)c(-c3ccc(OCCN4CCN(C)CC4)c(Cl)c3C)c12)C(=O)O (single isomer, unassigned) [Example 591, (2R)-2-{[(5Sa)-5-{3-chloro-2-methyl-4-[2-(4-methylpiperazin-1-yl)ethoxy]phenyl}-6-((2R or S)-tetrahydrofuran-2-yl)thieno[2,3-d]pyrimidin-4-yl]oxy}-3-(2-methoxyphenyl)propanoic acid] | 1.67 µM | 6.5e-08 M | – |
| Cc1c(-c2c(-c3ccc(F)o3)sc3ncnc(OC(Cc4ccccc4OCc4cccc(C(F)(F)F)n4)C(=O)O)c23)ccc(OCCN2CCN(C)CC2)c1Cl [Example 164, (2R)-2-{[(5Sa)-5-{3-chloro-2-methyl-4-[2-(4-methylpiperazin-1-yl)ethoxy]phenyl}-6-(5-fluorofuran-2-yl)thieno[2,3-d]pyrimidin-4-yl]oxy}-3-(2-{[6-(trifluoromethyl)pyridin-2-yl]methoxy}phenyl)propanoic acid] | 0.046 µM | – | 8.2e-09 M |
| CCc1sc2ncnc(OC(Cc3ccccc3)C(=O)O)c2c1-c1cc2nc(CN3CCN(C)CC3)oc2c(Cl)c1C [Example 445, (2R)-2-[((5Sa)-5-{7-chloro-6-methyl-2-[(4-methylpiperazin-1-yl)methyl]-1,3-benzoxazol-5-yl}-6-ethylthieno[2,3-d]pyrimidin-4-yl)oxy]-3-phenylpropanoic acid] | 21 µM | 1.3e-07 M | – |
| COc1cc(-c2sc3ncnc(OC(Cc4ccccc4OCC4CCCO4)C(=O)O)c3c2-c2ccc(OCCN3CCN(C)CC3)c(Cl)c2C)ccc1F [Example 379, (2R)-2-{[(5Sa)-5-{3-chloro-2-methyl-4-[2-(4-methylpiperazin-1-yl)ethoxy]phenyl}-6-(4-fluoro-3-methoxyphenyl)thieno[2,3-d]pyrimidin-4-yl]oxy}-3-{2-[(2R)-tetrahydrofuran-2-ylmethoxy]phenyl}propanoic acid] | 0.174 µM | – | 1.3e-08 M |
| Cc1c(-c2c(-c3ccc(F)cc3)sc3ncnc(OC(Cc4ccccc4OCc4ccnc(N5CCN(C)CC5)n4)C(=O)O)c23)ccc(OCCN2CCN(C)CC2)c1Cl [Example 50, (2R)-2-{[(5Sa)-5-{3-chloro-2-methyl-4-[2-(4-methylpiperazin-1-yl)ethoxy]phenyl}-6-(4-fluorophenyl)thieno[2,3-d]pyrimidin-4-yl]oxy}-3-(2-{[2-(4-methylpiperazin-1-yl)pyrimidin-4-yl]methoxy}phenyl)propanoic acid] | 0.076 µM | – | 7.6e-09 M |
| COc1ccccc1CC(Oc1ncnc2sc(-c3ccco3)c(-c3ccc(OC4CCN(C)C4)c(Cl)c3C)c12)C(=O)O [Example 303, (2R)-2-{[(5Sa)-5-{3-chloro-2-methyl-4-[(1-methylpyrrolidin-3-yl)oxy]phenyl}-6-(furan-2-yl)thieno[2,3-d]pyrimidin-4-yl]oxy}-3-(2-methoxyphenyl)propanoic acid] | 0.998 µM | – | 9.3e-09 M |
| Cc1c(-c2c(-c3ccc(F)cc3)sc3ncnc(OC(Cc4ccccc4OCc4ccnc(-c5cccs5)n4)C(=O)O)c23)ccc(OCCN2CCN(C)CC2)c1Cl [Example 33, (2R)-2-{[(5Sa)-5-{3-chloro-2-methyl-4-[2-(4-methylpiperazin-1-yl)ethoxy]phenyl}-6-(4-fluorophenyl)thieno[2,3-d]pyrimidin-4-yl]oxy}-3-(2-{[2-(thiophen-2-yl)pyrimidin-4-yl]methoxy}phenyl)propanoic acid] | 0.017 µM | – | 7.8e-09 M |
| Cc1c(-c2c(-c3ccc(F)cc3)sc3ncnc(OC(Cc4ccccc4OCc4ccnc(-n5ccnn5)n4)C(=O)O)c23)ccc(OCCN2CCN(C)CC2)c1Cl [Example 51, (2R)-2-{[(5Sa)-5-{3-chloro-2-methyl-4-[2-(4-methylpiperazin-1-yl)ethoxy]phenyl}-6-(4-fluorophenyl)thieno[2,3-d]pyrimidin-4-yl]oxy}-3-(2-{[2-(1H-1,2,3-triazol-1-yl)pyrimidin-4-yl]methoxy}phenyl)propanoic acid] | 0.038 µM | – | 3.5e-09 M |
| CCN1CCN(CCOc2ccc(-c3c(-c4ccco4)sc4ncnc(OC(Cc5ccccc5OCCOC)C(=O)O)c34)c(C)c2Cl)CC1 [Example 669, (2R)-2-{[(5Sa)-5-{3-chloro-4-[2-(4-ethylpiperazin-1-yl)ethoxy]-2-methylphenyl}-6-(furan-2-yl)thieno[2,3-d]pyrimidin-4-yl]oxy}-3-[2-(2-methoxyethoxy)phenyl]propanoic acid] | 0.108 µM | 4.9e-09 M | – |
| COc1ccc(Cn2nccc2COc2ccccc2CC(Oc2ncnc3sc(-c4ccc(F)cc4)c(-c4ccc(OCCN5CCN(C)CC5)c(Cl)c4C)c23)C(=O)O)cc1 [Example 79, (2R)-2-{[(5Sa)-5-{3-chloro-2-methyl-4-[2-(4-methylpiperazin-1-yl)ethoxy]phenyl}-6-(4-fluorophenyl)thieno[2,3-d]pyrimidin-4-yl]oxy}-3-(2-{[1-(4-methoxybenzyl)-1H-pyrazol-5-yl]methoxy}phenyl)propanoic acid] | 0.168 µM | – | 1.3e-08 M |
| COc1nc(C)cc(COc2ccccc2CC(Oc2ncnc3sc(-c4ccc(F)o4)c(-c4ccc(OCCN5CCN(C)CC5)c(Cl)c4C)c23)C(=O)O)n1 [Example 160, (2R)-2-{[(5Sa)-5-{3-chloro-2-methyl-4-[2-(4-methylpiperazin-1-yl)ethoxy]phenyl}-6-(5-fluorofuran-2-yl)thieno[2,3-d]pyrimidin-4-yl]oxy}-3-{2-[(2-methoxy-6-methylpyrimidin-4-yl)methoxy]phenyl}propanoic acid] | 0.021 µM | – | 5e-09 M |
| COc1ccc(COc2ccccc2CC(Oc2ncnc3sc(-c4cccc(F)c4)c(-c4ccc(OCCN5CCN(C)CC5)c(Cl)c4C)c23)C(=O)O)cc1 [Example 710, (2R)-2-{[(5Sa)-5-{3-chloro-2-methyl-4-[2-(4-methylpiperazin-1-yl)ethoxy]phenyl}-6-(3-fluorophenyl)thieno[2,3-d]pyrimidin-4-yl]oxy}-3-{2-[(4-methoxybenzyl)oxy]phenyl}propanoic acid] | 0.384 µM | 2.4e-09 M | – |
